Test in all cases: NCI anticancer screen, dose series, 48 h
The test system of assay [1] is BT-549 breast.
For assay [2], the system named is PC-3 prostate.
Assay [3] has as its system MOLT-4 leukemia.
The test system of assay [4] is M14 melanoma.
The test system of assay [5] is CCRF-CEM leukemia.
For assay [6], the system named is T-47D breast.
Assay [7] deals with NCI-H522 lung.
In assay [8] the test system is HT29 colon.
The test system of assay [9] is NCI-H460 lung.
The test system of assay [10] is KM12 colon.

Each structure is given as a SMILES string. Values joined by “and” are separate entries in the source; they are usually repeats but may differ in a detail not shown here. Equal values may be shown once.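 Interpolation was linear, between the two tested concentrations surrounding the appropriate level; five concentrations were tested over 48 hours in 96-well plates. GI50: concentration for 50% inhibition of growth. TGI marks complete inhibition of growth.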

Turning to `CCC(O)c1ccc(Br)cc1NC(=O)c1cccc(Cl)c1` (centres undefined), the GI50 in assay [1] was 23.7 µM; in assay [2], 12.5 µM; in assay [3], 15.9 µM; in assay [4] it was 21.3 µM; in assay [5], 20.5 µM; in [6], 12.7 µM. Also, the GI50 in [7] was 19.8 µM; in assay [8], 17.9 µM; in assay [9], 21.9 µM; in [10], 13 µM. Besides, the TGI in assay [1] came to 74.3 µM; in assay [2], 53.4 µM; in assay [3], 45.5 µM; in assay [4] it was 52.3 µM; in assay [5], 58.9 µM; in assay [6], 84.8 µM. Besides, the TGI came out at 81 µM in assay [7], 37.2 µM in assay [8], 78.5 µM in [9] and 29.6 µM in [10].

On to `COc1cc(OC)c(C(=O)/C=C/c2cc3c(cc2OCc2ccccc2)OC(C)(C)CC3)cc1CC=C(C)C`, for which the GI50 in [1] is 4.2 µM; in [2], 5.75 µM; in assay [3] it was 7.03 µM; in [4], 3.63 µM; in assay [5], 4.02 µM; in assay [6] it was 3.74 µM. Besides, the GI50 in assay [7] is 7.85 µM; in assay [8], 3.57 µM; in assay [9], 4.38 µM; in assay [10], 3.85 µM. Moreover, the TGI in [1] is 12.3 µM; in assay [2], over 25 µM; in assay [3], over 25 µM; in [4], 9.43 µM; in [5] it was 19.3 µM; in assay [6], 19.1 µM. For the same compound, the TGI in assay [7] was over 25 µM; in assay [8], 8.92 µM; in assay [9] it was 11.8 µM; in assay [10], 8.63 µM.

Take `CN(C)CCNc1ccc(CO)c2sc3ccc(O)cc3c(=O)c12`: the TGI in [1] was 8.93 µM; in [2], 5.92 µM; in assay [3], over 21.7 µM; in assay [4], 16.5 µM; in assay [5], 21.3 µM; in assay [6] it was 7.68 µM. Further, the TGI in assay [7] was determined as 3.49 µM; in [8], 9.35 µM; in assay [9], 2.87 µM; in [10], 7.3 µM.

In the case of `COc1ccc(NC(=O)CSC2=C(Nc3cccc(Br)c3)C(=O)N(Cc3ccccc3)C2=O)cc1Cl`, the GI50 was 51.6 µM in assay [1]; 8.82 µM in assay [2]; 1.73 µM in assay [3]; over 100 µM in assay [4]; 1.72 µM in assay [5]; over 100 µM in assay [6]. Moreover, the GI50 in assay [7] is 6.85 µM; in assay [8] it was over 100 µM; in assay [9] it was 29.9 µM; in [10], 65.5 µM. For the same compound, the TGI was over 100 µM in assay [1]; over 100 µM in assay [2]; over 100 µM in assay [3]; over 100 µM in assay [4]; 29.6 µM in assay [5]; over 100 µM in assay [6]. Besides, the TGI is 82.2 µM in [7], over 100 µM in assay [8], over 100 µM in assay [9] and over 100 µM in assay [10].

Regarding `COc1ccc(/C=C/C(=O)/C=C/c2cc3ccccc3[nH]c2=O)cc1`, the GI50 in [1] is 2.25 µM; in assay [2] it was 2.38 µM; in assay [3], 3.2 µM; in assay [4] it was 2.8 µM; in assay [5] it was 2.98 µM; in assay [6], 3.34 µM. Also, the GI50 in assay [7] was 1.97 µM; in assay [8], 2.47 µM; in assay [9] it was 4.98 µM; in assay [10], 2.62 µM. The TGI in [1] worked out at 6.19 µM; in assay [2] it was 7.81 µM; in assay [3] it was 9.24 µM; in assay [4], 8.92 µM; in assay [5], 9.68 µM; in assay [6], 12.4 µM. For the same compound, the TGI amounted to 4.67 µM in assay [7], 5.94 µM in assay [8], 20 µM in assay [9] and 6.95 µM in [10].

As to `O=C1c2ccccc2-[n+]2ccc3c([nH]c4ccccc43)c21`, the TGI in [1] was determined as 4.92 µM; in assay [2], 1.08 µM; in assay [3], 0.613 µM; in assay [4] it was 0.365 µM; in assay [5] it was 2.27 µM; in assay [6], 3.52 µM. Further, the TGI turned out to be 1.3 µM in [7], 1.78 µM in assay [8], 1.43 µM in assay [9] and 0.636 µM in assay [10].

On to `COc1cc2nc(SCc3cc(OC)c(OC)c(OC)c3)n(Cc3ccccc3)c(=O)c2cc1OC`, for which the GI50 in [1] is 3.32 µM; in assay [2], 3.27 µM; in [3], 3.81 µM; in assay [4], 2.11 µM; in [5], 3 µM; in assay [6], 4.54 µM. Moreover, the GI50 in assay [7] was 0.744 µM; in assay [8] it was 2.76 µM; in [9], 3.09 µM; in assay [10], 2.55 µM. Besides, the TGI was 20.7 µM in assay [1]; over 100 µM in assay [2]; over 100 µM in [3]; over 26.8 µM in assay [4]; over 100 µM in [5]; over 65.9 µM in assay [6]. Also, the TGI in assay [7] is 5.83 µM; in [8], over 100 µM; in assay [9], over 100 µM; in [10] it was over 100 µM.

Regarding `O=C(NOC[C@H](O)CO)c1ccc(F)c(F)c1Nc1ccc(I)cc1F`, the GI50 was 10.8 µM and > 10 µM in assay [1]; 62.6 µM and > 10 µM in assay [2]; 57.9 µM and > 10 µM in assay [3]; < 0.01 µM and 0.00132 µM in assay [4]; over 100 µM in [5]; 51.5 µM and > 4.02 µM in [6]. The GI50 in assay [8] was < 0.01 µM and 0.00291 µM; in assay [9] it was 15 µM and > 3.36 µM; in assay [10], 0.0456 µM and 0.036 µM. The TGI in [1] is over 31.4 µM; in assay [2], over 100 µM; in assay [3], over 100 µM; in assay [4] it was 0.0969 µM; in [5], over 100 µM; in [6], over 100 µM. The TGI in assay [7], in [8], in assay [9] and in [10] was over 100 µM each time.

Regarding `S=c1snc2n1CCN2`, the GI50 in [1] was over 100 µM; in assay [2], 65.4 µM; in assay [3], 32.3 µM; in assay [4], over 100 µM; in [5], 33.4 µM; in assay [6], 0.85 µM. For the same compound, the GI50 in [7] is 40.9 µM; in assay [8], 65.9 µM; in [9] it was 54.9 µM; in assay [10], over 100 µM. In addition, the TGI was over 100 µM in assay [1]; over 100 µM in assay [2]; over 100 µM in [3]; over 100 µM in assay [4]; over 100 µM in assay [5]; 37.4 µM in assay [6]. In addition, the TGI in assay [7], in [8], in assay [9] and in [10] was over 100 µM each time.

For `CC[C@H](Nc1ncnc2nc[nH]c12)c1nc2cccc(F)c2c(=O)n1-c1ccccc1`, the GI50 in assay [1] is 4.64 µM; in assay [2], 3.32 µM; in assay [3] it was 13.9 µM; in assay [4] it was 40.4 µM; in assay [5], 12.2 µM; in assay [6], 3.76 µM. In addition, the GI50 in [7] is 28.8 µM; in [8], 30 µM; in assay [9], 36.3 µM; in assay [10], 43.7 µM. Moreover, the TGI in assay [1] is over 100 µM; in [2] it was over 100 µM; in [3], over 87.4 µM; in assay [4], over 100 µM; in [5], over 100 µM; in assay [6], over 100 µM. Besides, the TGI in [7], in [8], in assay [9] and in assay [10] was over 100 µM in each case.

Values taken from PubChem BioAssay (NCI).
